ChEMBL document CHEMBL5338785, “Development of Aromatic-Linked Diamino Acid Antimicrobial Peptide Mimics with Low Hemolytic Toxicity and Excellent Activity against Methicillin-Resistant Staphylococcus aureus (MRSA)” (J Med Chem, 2023)

How the values were obtained:
[1] = tested on: Stenotrophomonas maltophilia; experiment: Antibacterial activity against Stenotrophomonas maltophilia assessed as bacterial growth inhibition incubated for 18 hrs by CLSI protocol based Mueller-Hinton broth assay; type: functional; settings: Stenotrophomonas maltophilia, read-out: MIC
Staphylococcus aureus [2] = experiment: Antibacterial activity against methicillin-resistant Staphylococcus aureus clinical isolates assessed as bacterial growth inhibition incubated for 18 hrs by CLSI protocol based Mueller-Hinton broth assay; type: functional
Enterococcus faecalis = experiment: Antibacterial activity against Enterococcus faecalis assessed as bacterial growth inhibition incubated for 18 hrs by CLSI protocol based Mueller-Hinton broth assay; type: functional; settings: Enterococcus faecalis, 18 h, read-out: MIC
Staphylococcus aureus [3] = experiment: Antibacterial activity against methicillin-resistant Staphylococcus aureus assessed as bacterial growth inhibition incubated for 18 hrs by CLSI protocol based Mueller-Hinton broth assay; type: functional; settings: Staphylococcus aureus, read-out: MIC
[4] = Hemolytic activity in sheep RBC assessed as hemolysis incubated for 1 hr by microplate reader method; type: toxicity, cell-based, Ovis aries, Erythrocyte; settings: sheep red blood cells
[5] = Selectivity index, ratio of HC50 for hemolytic activity in sheep RBC to MIC for antibacterial activity against methicillin-resistant Staphylococcus aureus assessed as bacterial growth inhibition; type: toxicity; settings: sheep red blood cells
Escherichia coli = experiment: Antibacterial activity against Escherichia coli assessed as bacterial growth inhibition incubated for 18 hrs by CLSI protocol based Mueller-Hinton broth assay; type: functional; settings: Escherichia coli, 18 h, read-out: MIC

Row | Structure (SMILES) | MIC [1] [µg/mL] | MIC (Staphylococcus aureus [2]) [µg/mL] | MIC (Enterococcus faecalis) [µg/mL] | MIC (Staphylococcus aureus [3]) [µg/mL] | HC50 at 1 h [4] [µg/mL] | selectivity ratio [5] | MIC (Escherichia coli) [µg/mL]
1 | CCCCCCN(CCCOc1ccc2c(OCCCN(CCCCCC)C(=O)[C@@H](N)CCCCN)cccc2c1)C(=O)[C@@H](N)CCCN.Cl.Cl.Cl.Cl | 2 | 0.5 | 2 | 2 | 612 | 306 | 2
2 | CCCCCCN(CCCCOc1ccc(OCCCCN(CCCCCC)C(=O)[C@@H](N)CCCCN)cc1)C(=O)[C@@H](N)CCCCN.Cl.Cl.Cl.Cl | 4 | 0.5 | 4 | 4 | 868 | 217 | 4
3 | CCCCCCCN(CCCOc1ccccc1OCCCN(CCCCCCC)C(=O)[C@@H](N)CCCCN)C(=O)[C@@H](N)CCCCN.Cl.Cl.Cl.Cl | 8 | 0.5 | 1 | 2 | > 1000 | > 500 | 16
4 | CCCCCCCN(CCCOc1cccc(OCCCN(CCCCCCC)C(=O)[C@@H](N)CCCCN)c1)C(=O)[C@@H](N)CCCCN.Cl.Cl.Cl.Cl | 4 | 0.5 | 1 | 1 | 814 | 814 | 2
5 | CCCCCCN(CCCOc1cc2ccccc2cc1OCCCN(CCCCCC)C(=O)[C@@H](N)CCCCN)C(=O)[C@@H](N)CCCCN.Cl.Cl.Cl.Cl | 4 | 0.5 | 1 | 1 | > 1000 | > 1000 | 8
6 | CCCCCCCN(CCOc1ccc(OCCN(CCCCCCC)C(=O)[C@@H](N)CC(C)C)cc1)C(=O)[C@@H](N)CC(C)C.Cl.Cl | 1 | – | 0.5 | < 0.25 | 36 | > 144 | 2
7 | CCCCCCCCN(CCCOc1ccccc1-c1ccccc1OCCCN(CCCCCCCC)C(=O)[C@@H](N)CCCCN)C(=O)[C@@H](N)CCCCN.Cl.Cl.Cl.Cl | 2 | – | 1 | 4 | 20 | 5 | 2
8 | CCCCCCCCCCN(CCOc1ccc(OCCN(CCCCCCCCCC)C(=O)[C@@H](N)CCCCN)cc1)C(=O)[C@@H](N)CCCCN.Cl.Cl.Cl.Cl | 2 | – | 2 | 4 | < 2.5 | < 0.625 | 4
9 | CCCCCCCCCCN(CCCOc1ccccc1-c1ccccc1OCCCN(CCCCCCCCCC)C(=O)[C@@H](N)CCCCN)C(=O)[C@@H](N)CCCCN.Cl.Cl.Cl.Cl | 8 | – | 8 | 8 | 40 | 5 | 8
10 | CCCCN(CCCOc1ccccc1-c1ccccc1OCCCN(CCCC)C(=O)[C@@H](N)CCCCN)C(=O)[C@@H](N)CCCCN.Cl.Cl.Cl.Cl | 32 | – | 8 | 8 | > 1000 | > 125 | 32
11 | CCCCCCCCN(CCCOc1ccc2c(OCCCN(CCCCCCCC)C(=O)[C@@H](N)CCCCN)cccc2c1)C(=O)[C@@H](N)CCCN.Cl.Cl.Cl.Cl | 1 | – | 1 | 1 | 14 | 14 | 1
12 | CCCCCCCN(CCCOc1ccc(OCCCN(CCCCCCC)C(=O)[C@@H](N)CCCCN)cc1)C(=O)[C@@H](N)CCCCN.Cl.Cl.Cl.Cl | 2 | 0.5 | 1 | 2 | 402 | 201 | 4
13 | CCCCCCN(CCCOc1ccc(-c2ccc(OCCCN(CCCCCC)C(=O)[C@@H](N)CCCCN)cc2)cc1)C(=O)[C@@H](N)CCCCN.Cl.Cl.Cl.Cl | 1 | – | 1 | 1 | 170 | 170 | 1
14 | CCCCCCCN(CCOc1ccc(OCCN(CCCCCCC)C(=O)[C@@H](N)[C@@H](C)CC)cc1)C(=O)[C@@H](N)[C@@H](C)CC.Cl.Cl | 2 | – | 1 | 0.5 | 47 | 94 | 2
15 | CCCCCCCCN(CCCOc1cc2ccccc2cc1OCCCN(CCCCCCCC)C(=O)[C@@H](N)CCCCN)C(=O)[C@@H](N)CCCCN.Cl.Cl.Cl.Cl | 1 | – | 1 | 1 | 68 | 68 | 2
16 | CCCCCCCCN(CCCOc1ccccc1)C(=O)[C@@H](N)CCCCN.Cl.Cl | 16 | – | 4 | 8 | 275 | 34 | 32
17 | CCCCCCCCCN(CCCOc1ccccc1)C(=O)[C@@H](N)CCCCN.Cl.Cl | 8 | – | 2 | 2 | 89 | 45.5 | 8
18 | CCCCCCCCN(CCCOc1ccc2ccccc2c1-c1c(OCCCN(CCCCCCCC)C(=O)[C@@H](N)CCCCN)ccc2ccccc12)C(=O)[C@@H](N)CCCCN.Cl.Cl.Cl.Cl (stereo in doubt; 8o) | 4 | – | 2 | 4 | 100 | 25 | 8
19 | CCCCCCN(CCCOc1ccccc1OCCCN(CCCCCC)C(=O)[C@@H](N)CCCCN)C(=O)[C@@H](N)CCCCN.Cl.Cl.Cl.Cl | 32 | – | 8 | 8 | > 1000 | > 125 | 64
20 | CCCCCCCCN(CCCCOc1ccc(OCCCCN(CCCCCCCC)C(=O)[C@@H](N)CCCCN)cc1)C(=O)[C@@H](N)CCCCN.Cl.Cl.Cl.Cl | 1 | – | 1 | 2 | 28 | 14 | 2
21 | CCCCCCCCN(CCCOc1ccc(OCCCN(CCCCCCCC)C(=O)[C@@H](N)CCCCN)cc1)C(=O)[C@@H](N)CCCCN.Cl.Cl.Cl.Cl | 1 | – | 1 | 2 | 37 | 18.5 | 2
22 | CCCCCCCCN(CCCOc1ccc(-c2ccc(OCCCN(CCCCCCCC)C(=O)[C@@H](N)CCCCN)cc2)cc1)C(=O)[C@@H](N)CCCCN.Cl.Cl.Cl.Cl | 4 | – | 2 | 2 | < 0.25 | < 0.125 | 4
23 | CCCCCCCN(CCCCOc1ccc(OCCCCN(CCCCCCC)C(=O)[C@@H](N)CCCCN)cc1)C(=O)[C@@H](N)CCCCN.Cl.Cl.Cl.Cl | 1 | – | 1 | 2 | 148 | 74 | 1
24 | CCCCCCCCCN(CCCCOc1ccc(OCCCCN(CCCCCCCCC)C(=O)[C@@H](N)CCCCN)cc1)C(=O)[C@@H](N)CCCCN.Cl.Cl.Cl.Cl | 1 | – | 1 | 2 | 12 | 6 | 2
25 | CCCCCCN(CCCOc1cccc(-c2cccc(OCCCN(CCCCCC)C(=O)[C@@H](N)CCCCN)c2)c1)C(=O)[C@@H](N)CCCCN.Cl.Cl.Cl.Cl | 1 | – | 0.5 | 0.5 | 216 | 432 | 1
